Measured values published in PubChem BioAssay (NCI).
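Results reflect a 48-hour exposure of cells in 96-well plates to compound at five concentrations. GI50 = concentration required for 50% inhibition of growth. TGI denotes the concentration required for complete inhibition of growth.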

Key:
Test in all cases: inhibition of tumour cell growth, NCI panel, 48 h
HOP-62 NSCLC = system: HOP-62 NSCLC
KM12 colon = system: KM12 colon
MALME-3M melanoma = system: MALME-3M melanoma
SK-MEL-28 melanoma = system: SK-MEL-28 melanoma
SNB-19 CNS = system: SNB-19 CNS
TK-10 renal = system: TK-10 renal
UACC-257 melanoma = system: UACC-257 melanoma
HCT-15 colon = system: HCT-15 colon
SK-MEL-5 melanoma = system: SK-MEL-5 melanoma
U251 CNS = system: U251 CNS

SMILES	TGI (HOP-62 NSCLC) [µM]	TGI (KM12 colon) [µM]	TGI (MALME-3M melanoma) [µM]	TGI (SK-MEL-28 melanoma) [µM]	TGI (SNB-19 CNS) [µM]	TGI (TK-10 renal) [µM]	TGI (UACC-257 melanoma) [µM]	TGI (HCT-15 colon) [µM]	TGI (SK-MEL-5 melanoma) [µM]	TGI (U251 CNS) [µM]	GI50 (HCT-15 colon) [µM]	GI50 (HOP-62 NSCLC) [µM]	GI50 (KM12 colon) [µM]	GI50 (MALME-3M melanoma) [µM]	GI50 (SNB-19 CNS) [µM]	GI50 (TK-10 renal) [µM]	GI50 (U251 CNS) [µM]	GI50 (SK-MEL-5 melanoma) [µM]	GI50 (UACC-257 melanoma) [µM]	GI50 (SK-MEL-28 melanoma) [µM]
Cc1cc2c3ccccc3n(C)c2c2c1C(=O)c1ccccc1C2=O	53.6	> 100	35.4	65	80.3	81.3	43.3	–	–	–	–	–	–	–	–	–	–	–	–	–
CC(=O)Nc1ccc2nncnc2c1	> 100	> 100	–	> 100	> 100	> 100	> 100	> 100	> 100	> 100	–	–	–	–	–	–	–	–	–	–
O=C(CC(=O)N1N=C(n2ccc3ccccc32)CC1c1ccccc1)Nc1cccc(Cl)c1 (centres undefined)	> 100	> 100	> 100	> 100	> 100	> 100	> 100	> 100	–	> 100	–	–	–	–	–	–	–	–	–	–
Cc1cc(C)nc(NS(=O)(=O)c2ccc(Nc3c4ccccc4nc4c(C(=O)NCCN(C)C)ccc(Cl)c34)cc2)n1	10.2	12.5	–	17.9	6.08	20.3	–	10.1	15.2	10.4	–	–	–	–	–	–	–	–	–	–
C/C(=N/O)C1CC=C(S(=O)(=O)c2ccccc2)C1 (centres undefined)	> 100	> 100	> 100	> 100	> 100	> 100	> 100	> 100	–	> 100	–	–	–	–	–	–	–	–	–	–
C=CCC(C(=O)OC)C1(C(=O)OC)c2[nH]c3ccccc3c2CCN1Cc1ccccc1 (centres undefined)	> 100	> 100	> 100	> 100	> 100	> 100	–	> 100	> 100	> 100	–	–	–	–	–	–	–	–	–	–
CCC(=O)C1=C(OC(C)=O)C2Cc3c(n(C)c4ccccc34)C(C1)N2C (centres undefined)	–	> 100	> 100	> 100	> 100	> 100	> 100	38	97.9	> 100	–	–	–	–	–	–	–	–	–	–
Cn1cc(-c2csc(-c3c[nH]c4ncccc34)n2)c2cc(Br)cnc21	11.6	> 100	> 100	–	> 100	> 100	–	> 100	–	> 100	13.7	2.39	5.7	3.01	6.74	3.77	2.7	–	–	–
COc1ccc(/C=C/c2cc(OC)c(O[Si](C)(C)C(C)(C)C)c(OC)c2)cc1	> 100	> 100	> 100	86.6	> 100	–	> 100	> 100	> 100	> 100	–	–	–	–	–	–	–	–	–	–
COc1ccc(/C=C2\N=C(c3ccccc3)OC2=O)c(OCc2ccccc2)c1	45.2	> 100	> 100	> 100	94.3	–	–	–	52.2	–	–	–	–	–	–	–	–	–	–	–
CCN1CCN(CCOc2ccc(CNc3ccc4nc(CCC5CCCCC5)[nH]c4c3)cc2)CC1	4.63	9.82	3.08	–	13	8.06	4.12	3.41	3.17	3.16	1.43	1.99	2.96	1.57	3.58	2.93	1.49	1.73	1.85	–
Cc1ccc(-n2c3c(c4c(CN5CCCCC5)c(O)ccc42)CCc2ccccc2C3=O)cc1	80.7	> 100	> 100	–	> 100	> 100	> 100	> 100	> 100	> 100	> 100	27.5	> 100	> 100	> 100	> 100	47.9	> 100	> 100	–
N=C(N)n1ncc(Cl)c(Cl)c1=O	–	20.2	4.98	5.26	12.9	35.3	4.66	3.99	15.2	20	–	–	–	–	–	–	–	–	–	–
CCOC(=O)CC(=O)ON(C)C(=O)Cc1ccccc1	> 100	> 100	> 100	–	> 100	–	> 100	> 100	> 100	> 100	–	–	–	–	–	–	–	–	–	–
CC1=C(C(=O)Nc2cccc(C(F)(F)F)c2)C(c2ccc(O)cc2)C(C(=O)Nc2cccc(C(F)(F)F)c2)=C(C)N1	45.5	33.2	64.4	47.7	> 100	66.6	36	–	33.6	43.6	–	–	–	–	–	–	–	–	–	–
Cc1ccc2nc3c(Cl)cc(=O)cc-3sc2c1	–	–	75.9	81.4	–	53.8	46.6	32	30.8	45.5	–	–	–	–	–	–	–	–	–	–
O=C(Nc1cccc(Cl)c1)Nc1cccc(Cl)c1	> 88.8	–	> 100	> 100	> 100	> 100	> 100	–	> 100	> 100	–	21.9	–	> 100	> 42.9	> 100	7.05	> 100	> 100	> 100
COc1ccc(Nc2c3ccccc3nc3c2c2ccccc2n3C)cc1	> 100	53.3	–	> 100	> 100	> 100	> 100	> 100	37.4	> 100	11.1	> 100	6.61	–	> 100	13	36.5	14	37.5	> 100
CCc1cccc(C(C)CC)c1N=C(NC(=O)c1ccccc1C(=O)NC(=Nc1c(CC)cccc1C(C)CC)SC)SC (centres undefined)	> 100	> 100	> 100	> 100	> 100	79	> 100	> 100	–	79.5	–	–	–	–	–	–	–	–	–	–
COc1ccc(CN2c3ccccc3Sc3ccccc32)cc1F	> 100	> 100	> 100	> 100	> 100	> 100	–	> 100	> 100	> 100	0.435	4.34	0.471	> 100	0.463	> 100	0.561	0.446	–	> 55
